What was measured:
mAChR M1 [1] = biological target: T1, mAChR M1 (Homo sapiens, UniProt P11229); experiment: competitive radioligand binding assay with [3H]NMS on CHO cell membranes, M1; settings: for Ki: CHO cell membranes, [3H]NMS, n ≥ 3, ± standard deviation, read-out: Inhibition constants (Ki) M1
T1 construct: host or cells: CHO-K1
T1 sequence (P11229 1-460): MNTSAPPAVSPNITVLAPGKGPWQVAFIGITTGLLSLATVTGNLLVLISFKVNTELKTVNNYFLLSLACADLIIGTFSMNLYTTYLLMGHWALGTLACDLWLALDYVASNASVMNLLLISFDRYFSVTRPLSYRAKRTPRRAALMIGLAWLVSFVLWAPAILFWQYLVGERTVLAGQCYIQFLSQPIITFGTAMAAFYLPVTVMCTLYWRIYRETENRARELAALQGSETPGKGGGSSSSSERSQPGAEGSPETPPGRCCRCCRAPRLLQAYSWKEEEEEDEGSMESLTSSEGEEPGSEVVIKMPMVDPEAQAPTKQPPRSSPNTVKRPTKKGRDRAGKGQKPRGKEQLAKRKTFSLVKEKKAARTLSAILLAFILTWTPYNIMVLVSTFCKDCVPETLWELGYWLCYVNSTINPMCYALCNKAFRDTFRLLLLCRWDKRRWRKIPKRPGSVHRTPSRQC
Procedure: (§1) Cell membranes bearing human mAChRs M1-M5 were prepared as described previously. In short, stably transfected CHO cells were grown to confluence in T175 flasks, washed with ice-cold DPBS, and suspended in 2 mL 10 mM Tris/HCl, 1 mM EDTA-buffer (pH 7.4), and 200 µL protease inhibitor using a cell scraper. A cell homogenate was prepared by passing the cell suspension through a G29 needle and subsequently centrifuged (10 min, 1000× g, 4 °C). Ultracentrifugation of the supernatant (30 min, 100,000× g, 4 °C) yielded a membrane pellet, which was suspended in 125 µL 50 mM Tris/HCl-buffer (pH 7.4) per T175 flask and stored at −80 °C. Ten confluent T175 flask were processed for one batch.
(§2) The membrane-bound activity was recovered by filtration through GF/B filter paper pre-soaked in 0.1 % PEI and measured with a liquid scintillation counter. Maximum binding was measured by using 5 µL plain DMSO, and nonspecific binding was measured by using 5 µL 1 µM scopolamine in DMSO. […] Then, 3–12 µL membrane suspension were used per tube. IC50 values were calculated by a variable slope logistic regression using at least five distinct concentrations of test compound, pipetted in triplicates.

human mAChR M2 = biological target: T2, human mAChR M2 (Homo sapiens, UniProt P08172); experiment: competitive radioligand binding assay with [3H]NMS on CHO cell membranes, M2; settings: n ≥ 3, ± standard deviation, read-out: Inhibition constants (Ki) M2
T2 construct: host or cells: CHO-K1
T2 sequence (P08172 1-466): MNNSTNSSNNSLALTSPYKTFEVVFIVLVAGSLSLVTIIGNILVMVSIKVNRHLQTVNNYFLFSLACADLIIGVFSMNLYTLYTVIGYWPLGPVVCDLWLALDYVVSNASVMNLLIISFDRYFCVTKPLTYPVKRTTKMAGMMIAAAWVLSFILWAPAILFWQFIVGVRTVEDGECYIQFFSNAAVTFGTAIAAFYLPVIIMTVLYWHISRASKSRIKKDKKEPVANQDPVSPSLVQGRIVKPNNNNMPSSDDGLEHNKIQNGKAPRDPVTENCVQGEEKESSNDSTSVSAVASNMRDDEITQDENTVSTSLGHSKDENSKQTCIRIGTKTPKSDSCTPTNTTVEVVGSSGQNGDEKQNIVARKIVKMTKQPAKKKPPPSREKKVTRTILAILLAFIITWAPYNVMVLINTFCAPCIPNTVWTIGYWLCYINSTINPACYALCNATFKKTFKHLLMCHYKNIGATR
Procedure: as §1, §2

human mAChR M3 = biological target: T3, human mAChR M3 (Homo sapiens, UniProt P20309); experiment: competitive radioligand binding assay with [3H]NMS on CHO cell membranes, M3; settings: n ≥ 3, ± standard deviation, read-out: Inhibition constants (Ki) M3
T3 construct: host or cells: CHO-K1
T3 sequence (P20309 whole entry): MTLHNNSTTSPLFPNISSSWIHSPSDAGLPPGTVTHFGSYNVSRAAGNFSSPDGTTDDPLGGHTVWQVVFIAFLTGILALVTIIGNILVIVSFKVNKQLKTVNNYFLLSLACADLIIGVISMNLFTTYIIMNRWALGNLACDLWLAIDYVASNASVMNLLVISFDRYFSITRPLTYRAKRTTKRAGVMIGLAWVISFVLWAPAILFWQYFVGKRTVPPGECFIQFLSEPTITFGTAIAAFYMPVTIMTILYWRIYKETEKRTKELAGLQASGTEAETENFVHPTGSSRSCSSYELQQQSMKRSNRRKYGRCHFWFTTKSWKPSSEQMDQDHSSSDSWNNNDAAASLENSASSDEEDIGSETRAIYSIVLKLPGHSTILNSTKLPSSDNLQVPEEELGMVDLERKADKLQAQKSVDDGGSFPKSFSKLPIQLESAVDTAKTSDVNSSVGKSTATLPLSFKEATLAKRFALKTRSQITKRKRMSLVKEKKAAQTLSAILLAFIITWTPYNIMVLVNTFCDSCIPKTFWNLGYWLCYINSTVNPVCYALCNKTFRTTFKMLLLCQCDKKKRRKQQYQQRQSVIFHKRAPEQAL
Procedure: as §1, §2

human mAChR M4 = biological target: T4, human mAChR M4 (Homo sapiens, UniProt P08173); experiment: competitive radioligand binding assay with [3H]NMS on CHO cell membranes, M4; settings: n ≥ 3, ± standard deviation, read-out: Inhibition constants (Ki) M4
T4 construct: host or cells: CHO-K1
T4 sequence (P08173 1-479): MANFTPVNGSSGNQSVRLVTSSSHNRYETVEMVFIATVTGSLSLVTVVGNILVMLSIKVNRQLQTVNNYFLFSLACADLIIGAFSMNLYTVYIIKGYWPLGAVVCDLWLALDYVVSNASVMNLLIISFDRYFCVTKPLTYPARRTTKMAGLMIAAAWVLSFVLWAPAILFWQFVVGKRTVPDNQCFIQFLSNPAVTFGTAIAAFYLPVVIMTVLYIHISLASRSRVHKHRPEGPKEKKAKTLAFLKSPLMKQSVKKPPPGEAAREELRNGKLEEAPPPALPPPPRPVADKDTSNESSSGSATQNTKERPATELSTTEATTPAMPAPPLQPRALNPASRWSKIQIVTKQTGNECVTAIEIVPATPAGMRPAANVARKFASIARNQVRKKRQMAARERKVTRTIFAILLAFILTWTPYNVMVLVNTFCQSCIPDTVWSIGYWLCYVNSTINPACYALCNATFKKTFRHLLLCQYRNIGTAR
Procedure: as §1, §2

human mAChR M5 = biological target: T5, human mAChR M5 (Homo sapiens, UniProt P08912); experiment: competitive radioligand binding assay with [3H]NMS on CHO cell membranes, M5; settings: n ≥ 3, ± standard deviation, read-out: Inhibition constants (Ki) M5
T5 construct: host or cells: CHO-K1
T5 sequence (P08912 1-532): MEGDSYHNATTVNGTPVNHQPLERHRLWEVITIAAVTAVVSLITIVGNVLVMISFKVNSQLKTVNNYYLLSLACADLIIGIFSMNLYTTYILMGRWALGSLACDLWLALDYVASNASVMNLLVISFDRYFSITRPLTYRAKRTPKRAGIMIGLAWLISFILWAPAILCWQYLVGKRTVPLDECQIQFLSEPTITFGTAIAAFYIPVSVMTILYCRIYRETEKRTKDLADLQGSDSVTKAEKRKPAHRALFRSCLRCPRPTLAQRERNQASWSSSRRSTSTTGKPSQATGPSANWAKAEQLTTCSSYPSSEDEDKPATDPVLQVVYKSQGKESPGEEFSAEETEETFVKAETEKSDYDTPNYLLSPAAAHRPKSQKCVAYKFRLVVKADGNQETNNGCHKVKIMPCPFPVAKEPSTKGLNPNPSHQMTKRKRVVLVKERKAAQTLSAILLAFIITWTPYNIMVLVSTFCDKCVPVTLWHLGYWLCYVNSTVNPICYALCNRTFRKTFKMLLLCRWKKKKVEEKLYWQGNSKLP
Procedure: as §1, §2

HPLC-logP determination = format: physicochemical; settings: HPLC on apHERA stationary phase (5 µm, 10 × 6 mm), pH 7.4; read-out: HPLC-logPow pH7.4
[2] = stability in DPBS at 37 °C (UV-HPLC); format: physicochemical; settings: for decomposition after 60 h: Sidak's multiple comparisons test; for decomposed after 2 h: linear interpolation between 0 h and 10 h
Procedure: (§3) First, 1089 µL DPBS or Ham’s F12 nutrient mixture were mixed with 11 µL of 10 mM stock solution of 1, 2, or 3 in DMSO (final DMSO content: 1%) and agitated at 37 °C. Then, 80 µL of the solution was analyzed by UV-HPLC (216 nm) using an XSelect™ (HSS T3, 3.5 μm, 100 × 4.6 mm) stationary phase and 40% acetonitrile in 25 mM (NH4)H2PO4 buffer (pH 9.3) at a flow of 1 mL/min (k1,2 = 5.6, k3 = 5.9). The fraction of stable compounds was calculated as the area under the curve of the compound peak for each combination of compound and matrix related to the 0 h time point with 100%. Three non-consecutive HPLC analyses were performed for each time point, combination of compounds, and matrix.

[3] = stability in Ham's F12 cell culture medium at 37 °C (UV-HPLC); format: physicochemical; settings: for decomposed after 2 h: linear interpolation between 0 h and 10 h
Procedure: as §3

mAChR M1 [4] = biological target: T1, mAChR M1; experiment: Fluo-4 direct calcium assay, agonist mode, CHO-M1 cells; format: cell-based; settings: 0.001-100 µM
Procedure: (§4) For the Fluo-4 direct^TM calcium assay kit (invitrogen), 100 µL of a 5 × 10^5 cells/mL suspension of CHO-M1 cells were seeded in black clear bottom 96-well plates (Corning). After settling of the cells for 24 h, the kit was performed according to the supplier’s recommendation. In detail, the media was removed, and 50 µL of Hanks-balanced salt solution (HBSS; Sigma Aldrich) were added, followed by 50 µL of the Fluo-4 buffer solution (including probenecid). The 96-well plates were incubated for 60 min at 37 °C in the dark. For the agonist assay, 100 µL of a double-concentrated dilution series of carbachol (positive control), 1, 2, and 3 were added with the end concentration of 100, 10, 1, 0.1, 0.01 and 0.001 µM in duplicates. The relative fluorescence was measured with an excitation wavelength of 494 nm and an emission wavelength of 516 nm. For the antagonist assay, 50 µL of a 4-fold concentrated dilution series of scopolamine hydrochloride (positive control), 1, 2, and 3 were added in duplicates. Subsequently a 40 µM stock solution of carbachol was added to all wells, and the relative fluorescence was measured with an excitation wavelength of 494 nm and an emission wavelength of 516 nm. Stock solution of 1, 2, and 3 were in DMSO with a final concentration of at most 1% of DMSO. All experiments were performed at least in three repetitions.

mAChR M1 [5] = biological target: T1, mAChR M1; experiment: Fluo-4 direct calcium assay, antagonist mode (block of carbachol response), CHO-M1 cells; format: cell-based; settings: 20 µM carbachol
Procedure: as §4

[6] = pH 7.4; cited from earlier work

Row | Ki (mAChR M1 [1]) [nM] | Ki (human mAChR M2) [nM] | Ki (human mAChR M3) [nM] | Ki (human mAChR M4) [nM] | Ki (human mAChR M5) [nM] | chromatographic logD (HPLC-logP determination) | decomposition after 60 h [2] | decomposed after 2 h [2] [%] | decomposed after 2 h [3] [%] | calcium release (agonistic activity) (mAChR M1 [4]) | functionality (block of calcium response to carbachol) (mAChR M1 [5]) | selectivity between M1 and M2 (mAChR M1 [1]; Ki M2 divided by Ki M1) [fold] | M1 over M4 subtype selectivity (mAChR M1 [1]; Ki M4 divided by Ki M1, Ki values of this work) [fold] | decomposition after 60 h [3] | Compound | HPLC-logPow pH7.4 [6]
1 | 800 ± 200 | 8000 ± 2000 | 1600 ± 300 | 2700 ± 600 | 1300 ± 300 | 2.24 ± 0.12 | decomposed to the same extent | 0.8 | 2.5 | no increase in calcium release | antagonistic binding | – | – | – | CN1CCC=C(C(=O)O[C@@H](c2ccccc2)[C@@H](O)c2ccccc2)C1 [compound 2, (1S,2S)-(−)-2-hydroxy-1,2-diphenylethyl 1-methyl-1,2,5,6-tetrahydropyridine-3-carboxylate] | –
2 | 99 ± 19 | 1900 ± 300 | 1300 ± 600 | 700 ± 300 | 600 ± 75 | 2.24 ± 0.12 | decomposed to the same extent | 0.8 | 2.5 | no increase in calcium release | antagonistic binding | 19 | 7 | significantly stronger compared to 2 | CN1CCC=C(C(=O)O[C@H](c2ccccc2)[C@H](O)c2ccccc2)C1 [compound 1, (1R,2R)-(+)-2-hydroxy-1,2-diphenylethyl 1-methyl-1,2,5,6-tetrahydropyridine-3-carboxylate] | –
3 | – | – | – | – | – | – | – | – | – | – | – | – | – | – | CN1CCC=C(C(=O)OC(c2ccccc2)c2ccccc2)C1 [arecaidine diphenylmethyl ester] | 3.32 ± 0.04
4 | 380 ± 90 | 3700 ± 1000 | 3200 ± 500 | 1600 ± 200 | 970 ± 90 | 2.39 ± 0.1 | decomposed to the same extent | 0.8 | 2.5 | no increase in calcium release | antagonistic binding | – | – | – | CN1CCC=C(C(=O)O[C@@H](c2ccccc2)[C@H](O)c2ccccc2)C1 (racemic) [compound 3, Rac. (1S,2R)-2-hydroxy-1,2-diphenylethyl 1-methyl-1,2,5,6-tetrahydropyridine-3-carboxylate] | –
